Measured values reported in patent US12473305B2, “Pyrazole boronic acid compound, pharmaceutical composition containing same, and uses thereof” (BEIJING SONGRUN PHARMACEUTICAL TECHNOLOGY CO., LTD., priority 2020, dated 2025).

Columns and labels:
[1] = test system: colorectal cancer cell line HCT116; experiment: CellTiter-Glo tumor cell proliferation, HCT116; assay type: cell-based, human; conditions: Homo sapiens, HCT-116, 72 h
How it was run: (§1)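 Cells seeded at 2×10^4/mL, grown 24 h at 37° C, 5% CO2, then treated in triplicate with medium-diluted compound for 72 h. CellTiter-Glo luminescence read after 20 min at 37° C; inhibition versus untreated control RLU, IC50 calculated.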

[2] = test system: non-small cell lung cancer cell line A549; experiment: CellTiter-Glo tumor cell proliferation, A549; assay type: cell-based, human; conditions: Homo sapiens, A549, 72 h, read-out: Inhibition rate A549 (%)
How it was run: as §1

[3] = test system: Human melanoma cell line A375; experiment: CellTiter-Glo tumor cell proliferation, A375; assay type: cell-based; conditions: Homo sapiens, A-375, 72 h
How it was run: as §1

[4] = test system: human lung adenocarcinoma cell line H1299; experiment: CellTiter-Glo tumor cell proliferation, H1299; assay type: cell-based; conditions: NCI-H1299, 72 h
Procedure: (§2) The effect of compounds on tumor cell proliferation was detected by CellTiter-Glo method. Human melanoma cell line A375, non-small cell lung cancer cell line A549, human lung adenocarcinoma cell line H1299, colorectal cancer cell line HCT116, liver cancer cell line HepG2 and gastric cancer cell line MGC80-3 were cultured in vitro. The cells were collected after growing to the logarithmic growth phase, centrifuged at 1000 rpm for 5 min, and suspended in an appropriate amount of medium after discarding the supernatant, and the cell concentration was adjusted to 2×10^4/mL. The cell suspension was inoculated onto the 384-well cell culture plate, with 50 μL per well. After being cultured in a cell incubator (37° C., 5% CO2) for 24 h, 5 μL of drug diluted by the cell culture medium was added into each well for the treatment group. Each drug was provided in triplicate. After 72 h incubation in the incubator, 20 μL of CellTiter-Glo was added into each well, and the relative luminescence unit (RLU) was measured with Multimode Microplate Reader Varioskan Flash (Thermo Scientific, USA) after placed at 37° C. for 20 min, and compared with the RLU of the control group. SigmaPlot 10.0 software was used to calculate the inhibition rate and IC50 value.

[5] = test system: liver cancer cell line HepG2; experiment: CellTiter-Glo tumor cell proliferation, HepG2; assay type: cell-based, human; conditions: 72 h
Procedure: as §2

| Molecule | inhibition at 1 µM ([1]; 1 μM, read-out: Inhibition rate HCT116 (%)) | inhibition at 10 µM ([1]; 10 μM, read-out: Inhibition rate HCT116 (%)) | IC50 ([1]; CellTiter-Glo) | inhibition at 1 µM ([2]; 1 μM) | inhibition at 10 µM ([2]; 10 μM) | inhibition at 1 µM ([3]; 1 μM, read-out: Inhibition rate A375 (%)) | inhibition at 10 µM ([3]; 10 μM, read-out: Inhibition rate A375 (%)) | IC50 ([3]; CellTiter-Glo) | IC50 [4] | IC50 [5] |
| --- | --- | --- | --- | --- | --- | --- | --- | --- | --- | --- |
| CC(C)C[C@H](NC(=O)Cn1nc(-c2ccccc2OS(=O)(=O)c2cccc(C(F)(F)F)c2)cc1-c1ccccc1)B(O)O [Compound 1, (R)-(3-methyl-1-(2-(5-phenyl-3-(2-(((3-(trifluoromethyl)phenyl)sulfonyl)oxy)phenyl)-1H-pyrazol-1-yl)acetamido)butyl)boronic acid] | 13.1% | 98% | 6.53 µM | 11.9% | 66.4% | 5.8% | 98.4% | 8.91 µM | 7.19 µM | – |
| ((1R)-1-(2-(3-(3-(2-(S,S-2,6-dimethylmorpholino)ethoxy)phenyl)-5-phenyl-1H-pyrazol-1-yl)acetamido)-3-methylbutyl)boronic acid hydrochloride [Compound 37] | – | – | – | – | – | – | – | – | – | 0.06 µM |
